According to patent CN110590914A, “一种抑制和消除幽门螺杆菌生物膜生成的蜂蜜和多肽组合物” (Anhui University of Science and Technology, priority 2019, dated 2019):
Ends that are not written are not given here.

Test system: 幽门螺杆菌SS1菌株
Experiment: Inhibition of Helicobacter pylori biofilm formation (crystal violet staining, A595)
Type: cell-based
Conditions: peptide 5, 10, 20, 40, 80μg/mL (Fig. 1)

## KRIVQRIKDIKP [实施例4]
  Concentration dependence of inhibition of biofilm formation: 随着多肽的浓度增大，对生物膜生成的抑制率不断增加
